The values below come from PubChem BioAssay (NCI).

Test systems include COLO 205 colon; U251 CNS; HCT-116 colon; SF-268 CNS; SN12C renal; NCI-H460 lung; 786-0 renal; HCT-15 colon; SK-MEL-28 melanoma; HCC-2998 colon.
What all share (assay): growth of human tumour cells (NCI), 48 h

SMILES strings stand for the structures.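 Five concentrations, 48 hours, 96-well plates. Here, GI50 denotes the concentration required for 50% inhibition of growth. At the TGI there is no net growth.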 A value given as a limit tells only on which side of the number the result lay.

Consider `COc1ccc2nc3cc([N+](=O)[O-])ccc3c(NCCO)c2c1`, for which the GI50 was 3.31 µM in the assay on COLO 205 colon; 1.44 µM in the assay with U251 CNS; 2.2 µM in the assay on HCT-116 colon; 1.15 µM with SF-268 CNS; 2.51 µM with SN12C renal; 1.66 µM in the assay with NCI-H460 lung. In addition, the GI50 in the assay on 786-0 renal is 2.5 µM; in the assay on HCT-15 colon it was 7.24 µM; with SK-MEL-28 melanoma, 5.41 µM. For the same molecule, the TGI with COLO 205 colon was determined as 17.4 µM; in the assay on HCT-116 colon it was 10.5 µM; with SF-268 CNS it was 11.5 µM; in the assay with SN12C renal, 30.8 µM; in the assay on NCI-H460 lung, 4.9 µM; in the assay on 786-0 renal, 11.4 µM.

Consider `Cc1[nH]c(=O)n2c(C)nnc2c1C(=O)O`, for which the TGI with COLO 205 colon, with U251 CNS, in the assay on HCT-116 colon, in the assay with SF-268 CNS, in the assay with SN12C renal and in the assay with NCI-H460 lung was more than 100 µM in each case. Also, the TGI in the assay with 786-0 renal, in the assay with HCT-15 colon and in the assay with SK-MEL-28 melanoma was more than 100 µM throughout.

As for `CCOC(=O)c1c(-c2ccccc2)n2c(=O)cc(C)c3c(O)c(O)cc1c32`, the GI50 in the assay with COLO 205 colon is 11 µM; with U251 CNS it was 4.98 µM; with HCT-116 colon it was 2.8 µM; with SF-268 CNS it was 3.35 µM; in the assay with SN12C renal, 10.8 µM; in the assay with NCI-H460 lung, 2.6 µM. In addition, the GI50 in the assay with 786-0 renal was 11.7 µM; with HCT-15 colon it was 1.66 µM; in the assay on SK-MEL-28 melanoma, 12.7 µM. Moreover, the TGI in the assay on COLO 205 colon is 28.2 µM; in the assay with U251 CNS, 22.7 µM; in the assay with HCT-116 colon, 11.9 µM; with SF-268 CNS, 20.2 µM; in the assay on SN12C renal, 35.1 µM; with NCI-H460 lung, 25.3 µM. The TGI in the assay with 786-0 renal was determined as 53.7 µM; in the assay on HCT-15 colon, 19.5 µM; with SK-MEL-28 melanoma, 29.3 µM.

Consider `OC1(C(Sc2ccccc2)Sc2ccccc2)CCCCCC1`, for which the TGI in the assay with COLO 205 colon is 57.8 µM; in the assay with U251 CNS it was 66.2 µM; in the assay on HCT-116 colon, 72.3 µM; with SF-268 CNS, more than 100 µM; in the assay with SN12C renal it was 38.5 µM; in the assay with NCI-H460 lung it was 75.5 µM. Further, the TGI in the assay with 786-0 renal is 64.9 µM; in the assay on HCT-15 colon, 60.5 µM; in the assay on SK-MEL-28 melanoma it was more than 100 µM.

Turning to `Cc1ccc(NC(=S)NNC(=S)Nc2ccc(C)cc2)cc1`, the GI50 was 7.6 µM with COLO 205 colon; 15.5 µM in the assay with HCC-2998 colon; 5.16 µM in the assay on U251 CNS; 3.81 µM in the assay on HCT-116 colon; 6.05 µM in the assay on SF-268 CNS; 3.89 µM with NCI-H460 lung. Also, the GI50 in the assay on 786-0 renal is 51.3 µM; in the assay on HCT-15 colon, 5.15 µM; in the assay on SK-MEL-28 melanoma, 8.39 µM. For the same molecule, the TGI was 50 µM in the assay on COLO 205 colon; more than 100 µM in the assay with HCC-2998 colon; more than 100 µM with U251 CNS; more than 100 µM in the assay with HCT-116 colon; more than 100 µM in the assay on SF-268 CNS; more than 100 µM in the assay on NCI-H460 lung. Moreover, the TGI with 786-0 renal, with HCT-15 colon and in the assay on SK-MEL-28 melanoma was more than 100 µM each time.

`COC(=O)C1C(C(=O)O)C2(c3ccccc3)C(=O)C1(c1ccccc1)C(c1ccc(OC)cc1)=C2c1ccc(OC)cc1` (stereo unspecified): the GI50 is 16.4 µM with COLO 205 colon; 13.9 µM in the assay on HCC-2998 colon; 36.6 µM with U251 CNS; 17.3 µM in the assay on HCT-116 colon; 25 µM in the assay on SF-268 CNS; 20.5 µM in the assay with SN12C renal. Moreover, the GI50 was 13.7 µM with NCI-H460 lung, 18.6 µM with 786-0 renal and 38.6 µM in the assay on HCT-15 colon. The TGI in the assay on COLO 205 colon is 38.8 µM; with HCC-2998 colon it was 27.8 µM; in the assay on U251 CNS it was more than 100 µM; in the assay on HCT-116 colon, 33.6 µM; in the assay with SF-268 CNS it was 82.2 µM; in the assay with SN12C renal, 49 µM. The TGI in the assay on NCI-H460 lung was 31 µM; in the assay with 786-0 renal, 40.4 µM; with HCT-15 colon it was more than 100 µM.

With `CCCCCCCCCN=C(N)c1ccc(N2CCN(c3ccc(C(N)=NCCCCCCCCC)cc3)CC2)cc1`, the GI50 in the assay with COLO 205 colon is 1.78 µM; with HCC-2998 colon, 1.82 µM; with U251 CNS, 0.518 µM; with SF-268 CNS it was 1.22 µM; in the assay with SN12C renal it was 1.52 µM; with NCI-H460 lung, 1.61 µM. The GI50 is 3.4 µM with 786-0 renal, 2.05 µM in the assay with HCT-15 colon and 1.6 µM in the assay on SK-MEL-28 melanoma. Further, the TGI with COLO 205 colon stood at 7.94 µM; in the assay with HCC-2998 colon, 6.14 µM; in the assay with U251 CNS, 1.41 µM; in the assay with SF-268 CNS, 4.04 µM; with SN12C renal it was 7.85 µM; in the assay on NCI-H460 lung, 5.13 µM. The TGI in the assay with 786-0 renal was more than 50 µM; in the assay with HCT-15 colon, 13.5 µM; in the assay with SK-MEL-28 melanoma it was 4.27 µM.

Regarding `CCOC(=O)c1c(C)n([O-])c2cc(F)c(F)cc2[n+]1=O`, the GI50 is 1.94 µM in the assay on COLO 205 colon; 1.51 µM in the assay with U251 CNS; 0.351 µM in the assay on HCT-116 colon; 1.57 µM in the assay on SF-268 CNS; 1.01 µM in the assay on SN12C renal; 2.88 µM in the assay on NCI-H460 lung. The GI50 in the assay on 786-0 renal was 6.73 µM; with HCT-15 colon, 0.455 µM; with SK-MEL-28 melanoma, 1.24 µM. The TGI in the assay with COLO 205 colon was 4.54 µM; in the assay on U251 CNS, 3.04 µM; with HCT-116 colon it was 1.28 µM; in the assay on SF-268 CNS, 3.69 µM; in the assay with SN12C renal, 2.18 µM; in the assay on NCI-H460 lung, 15.9 µM. Further, the TGI with 786-0 renal is 19.8 µM; in the assay on HCT-15 colon, 2.04 µM; with SK-MEL-28 melanoma, 2.58 µM.

Take `Clc1nc(Cl)c2ncn(-c3ccccc3)c2n1`: the GI50 with COLO 205 colon is 3.4 µM; in the assay on U251 CNS, 1.8 µM; in the assay with HCT-116 colon, 2 µM; in the assay on SF-268 CNS, 3.26 µM; in the assay with SN12C renal it was 7.45 µM; in the assay with NCI-H460 lung it was 6.24 µM. The values for the GI50 in the assay with 786-0 renal, in the assay on HCT-15 colon and in the assay on SK-MEL-28 melanoma were 5.51 µM, 3.42 µM and 4.69 µM, respectively. The TGI was found to be 13.5 µM with COLO 205 colon; 3.73 µM with U251 CNS; 4.69 µM in the assay on HCT-116 colon; 15.4 µM with SF-268 CNS; 21.5 µM with SN12C renal; 23.5 µM with NCI-H460 lung. For the same molecule, the TGI in the assay with 786-0 renal turned out to be 18.3 µM; in the assay with HCT-15 colon it was 16 µM; with SK-MEL-28 melanoma, 17.3 µM.
